The subject of data set [1] is Human cervical carcinoma cells (HeLa). The data set is described as follows: MTS cytotoxicity assay, HeLa cells. The format is cell-based. As to conditions: 3 days, average of three experiments. (In general: Formazan colour is commonly taken as a measure of viable cells.)
The subject of data set [2] is Norwalk virus binding to the A antigen. The data set is described as follows: Saliva-based blocking EIA: Norwalk virus VLP binding to A antigen. Further details: species or system Norovirus. Conditions: for EC50: Norwalk VLP binding to A antigen, read-out: EC50 rNorwalk A. The source says:
(§1) A saliva based blocking assay offers several advantages for anti-Norovirus agent screening. First, the assay is a solid phase blocking assay which is simple and suitable for large scale screening. Second, the source of HBGAs used in the assay was from healthy human volunteers, which is likely to represent the natural forms of Norovirus receptors. Third, the assay is highly sensitive and specific. Finally, a panel of saliva samples can be assembled from different individuals representing different blood types, from which the results obtained in primary screenings can be validated.
(§2) To optimize the blocking assays, we have titrated all reagents used in the assays including the VLPs, the first and second antibodies, the blocking reagent (dried cow milk), and a panel of saliva samples from different donors. […] For comparison of daily results, eight control wells containing everything but compounds were included in each plate, and the assays were considered valid when the daily OD450 variations in these wells were less than 20%. Less than 1% of the total screening runs failed in our study.
(§3) Cow milk contains a large amount of variable proteins, lipids and glycans which can easily interfere with the assay particularly when a low concentration of compounds (μM) was used in our screening. To avoid any false-negative results, the step of addition of blotto in the EIA for all screening experiments in this study was removed.
(§4) Baculovirus-expressed recombinant capsid proteins of four Norovirus strains representing four distinct receptor binding patterns were studied: Norovirus strains Norwalk, VA387, VA207, and MOH. The procedures of production of Norovirus VLPs in insect cell Spodoptera frugiperda (Sf9) have described in “Expression, self-assembly, and antigenicity of the Norwalk virus capsid protein”, J Virol 66:6527-32, Jiang et al (1992), and in “Baculovirus expression and antigenic characterization of the capsid proteins of three Norwalk-like viruses”, Arch Virol 147:119-30, Jiang et al. (2002), the disclosures of which are incorporated herein by reference. Briefly, a cDNA from the 3′ end of the genome containing the viral capsid gene (open reading frame 2 [ORF-2] was cloned from the viral RNA extracted from stool specimens. The recombinant baculoviruses carry the viral capsid genes were constructed from the cloned cDNAs using the Bac to Bac expression system according to the manufacture's instructions (Invitrogen Life Technologies, Carlsbad, Calif.). VLPs were partially purified by sucrose gradient centrifugation and stored at −80° C. Protein concentrations were determined by measuring the optical density at 280 nm (OD280) using a GeneQuant spectrophotometer (Pharmacia, Mich.) and by comparison with a bovine serum albumin standard in a sodium dodecyl sulfate-polyacrylamide gel (25). The purity of VLPs used in this study was over 90% which was determined by SDS-PAGE analysis.
(§5) Saliva samples were collected from healthy adult volunteers under an approval of human subject research protocol by the Institutional Review Board at the Cincinnati Children's Hospital Medical Center. Except for gender and race, no other personal information was collected. A total of 5-10 ml of saliva was collected from each volunteer, and the samples were processed immediately after collection. To avoid potential Norovirus-specific antibodies that may interfere in the receptor binding assays, saliva samples were boiled at 100° C. for 10 min, and then centrifuged at 10,000×g for 5 min. The clear supernatant was stored at −80° C. until use. The HBGA types of the saliva samples were determined by enzyme immune assays with monoclonal antibodies specific to human HBGAs (8). Saliva sample from a type A donor was selected for the primary screening, and a total of 25 saliva samples of known ABO, secretor, and Lewis types were selected for further studies to confirm the primary screening results. […]

Data set [3] addresses MOH binding to the B antigen. Briefly: Saliva-based blocking EIA: MOH VLP binding to B antigen. Further details: species or system Norovirus. Conditions: MOH VLP binding to type B saliva; read-out: EC50 rMOH B.
Description: as §1, §2, §3, §4, §5

Data set [4] addresses VA387 binding to the H antigen. Briefly: Saliva-based blocking EIA: VA387 VLP binding to H antigen. Further details: species or system Norovirus. As to conditions: for EC50: VA387 VLP binding to H antigen saliva, read-out: EC50 rVA387 H; for inhibition of VA387 binding to the H antigen: one saliva sample.
Description: as §1, §2, §3, §4, §5

For data set [5], the system named is Norwalk virus binding to the H antigen. The data set is described as follows: Saliva-based blocking EIA: Norwalk virus VLP binding to H antigen. Further details: species or system Norovirus. Conditions: for EC50: Norwalk VLP binding to H antigen, read-out: EC50 rNorwalk H.
Description: as §1, §2, §3, §4, §5

For data set [6], the target named is VA387 VLPs binding to the A antigen. The data set is described as follows: Saliva-based blocking EIA: VA387 VLP binding to type A saliva. Further details: species or system Norovirus. As to conditions: read-out: EC50 rVA387 A.
Description: as §1, §2, §3, §4, §5

The target of data set [7] is MOH binding to the A antigen. Briefly: Saliva-based blocking EIA: MOH VLP binding to A antigen. Set-up: species or system Norovirus. As to conditions: MOH VLP binding to type A saliva; read-out: EC50 rMOH A.
Description: as §1, §2, §3, §4, §5

Data set [8] deals with VA387 binding to the B antigen. The data set is described as follows: Saliva-based blocking EIA: VA387 VLP binding to B antigen. Set-up: species or system Norovirus. Conditions: for EC50: VA387 VLP binding to B antigen saliva, read-out: EC50 rVA387 B; for inhibition of VA387 binding to the B antigen: one saliva sample.
Description: as §1, §2, §3, §4, §5

For data set [9], the target named is VA207 binding to the Lewis antigens. The data set is described as follows: Saliva-based blocking EIA: VA207 VLP binding to Lewis antigens. Set-up: species or system Norovirus. Conditions: VA207 VLP binding to Lewis antigen; read-out: EC50 rVA207 Le.
Description: as §1, §2, §3, §4, §5

As usually defined, the CC50 is the concentration at which the toxic effect on the cells reaches its halfway point. Read a high CC50 as better tolerance by the cells. Broadly, the EC50 is the concentration that produces a half-maximal response. Turning to `CCCc1ccc(OCc2ccc(C(=O)N/N=C/c3ccc(Cl)cc3O)o2)cc1` [Compound 5], the CC50 in [1] amounted to 46.7 µM. Further, in data set [2], the “blocking of Norwalk virus binding to the A antigen” value was “blocked”. The EC50 is 18.2 µM in data set [2]; greater than 100 µM in data set [3]; 7.2 µM in [4]; 36.3 µM in data set [5]; 9.1 µM in [6]; greater than 100 µM in data set [7]. For the same compound, the results for the EC50 in data set [8] and in data set [9] were 13.5 µM and greater than 100 µM, respectively. Moreover, the “inhibition of VA387 binding to the H antigen” value in [4] was “dose-dependant inhibition”. The “inhibition of Norwalk virus binding to the H antigen” value in [5] is given as “inhibited”. Further, the “inhibition of VA387 binding to the B antigen” value (“inhibition … to the B antigen” below) in data set [8] is on record as “dose-dependant inhibition”.
For the compound `Cc1ccc(NC(=O)CC(c2ccccc2)c2ccccc2)cc1C` [Compound 9], the CC50 in [1] amounted to 40.3 µM. In addition, the EC50 in data set [2] is greater than 100 µM; in data set [3] it was greater than 100 µM; in data set [4], 47.5 µM; in data set [5], greater than 100 µM; in data set [6] it was 11.7 µM; in [7], greater than 100 µM. Besides, the EC50 in data set [8] and in [9] was greater than 100 µM throughout. In [4], the “inhibition of VA387 binding to the H antigen” value is recorded as “revealed inhibitory activity”. Moreover, in data set [8], the “inhibition … to the B antigen” value is listed as “did not have any inhibitory activity”.
Consider `O=CC(=O)c1ccc2c(c1)Cc1cc(C(=O)C=O)ccc1-2` [Compound 6], for which the CC50 in data set [1] was determined as 52.7 µM. In addition, the EC50 in data set [2] was greater than 100 µM; in data set [3], greater than 100 µM; in data set [4] it was 41.1 µM; in [5], greater than 100 µM; in data set [6], 9.3 µM; in [7] it was greater than 100 µM. Moreover, the EC50 in [8] is 44.6 µM; in [9], greater than 100 µM. For the same compound, in data set [4], the “inhibition of VA387 binding to the H antigen” value was “dose-dependant inhibition”. Besides, in [8], the “inhibition … to the B antigen” value is recorded as “dose-dependant inhibition”.
Turning to `CCCOc1ccc(-c2cc(C(=O)N/N=C/c3ccc(OCC)cc3)[nH]n2)cc1` [Compound 14], the CC50 in data set [1] amounted to 12.3 µM. Also, the concentration for a half-maximal effect (EC50) in data set [2] was greater than 100 µM; in data set [3] it was greater than 100 µM; in [4], greater than 100 µM; in data set [5] it was greater than 100 µM; in data set [6], 13.7 µM; in data set [7], greater than 100 µM. In addition, the concentration giving a half-maximal response (EC50) in [8] and in data set [9] was greater than 100 µM throughout. Further, the “inhibition of VA387 binding to the H antigen” value in [4] is listed as “did not have any inhibitory activity”. Besides, the “inhibition … to the B antigen” value in [8] is on record as “did not have any inhibitory activity”.

(Values after patent publication US20110152263A1, “COMPOSITION AND METHOD FOR INHIBITING NOROVIRUS INFECTION” (priority 2006, published 2011).)
